Experimental data: paper PMC5659136, “Peptide mimetics of immunoglobulin A (IgA) and FcαRI block IgA‐induced human neutrophil activation and migration” (European Journal of Immunology, 2017)
Positions of bridges follow the written chain, without caps; N, C: chain ends. No end group written: not given here.

Tests used:
[1] = tested on: neutrophils; experiment: In vitro neutrophil migration to IgA-coated beads; type: cell-based, human; details: fluorimeter; for block of IgA-induced neutrophil migration (in words): oxidated or small cyclic peptides, 3 independent experiments in triplicates, Supporting Information Fig. 2
Description: Figure 3 Peptide mimetics block IgA‐induced migration in vitro. Percentage of migration of fluorescently labelled neutrophils to IgA‐coated beads, either in the presence or absence of peptide mimetics. The number of migrated neutrophils was determined with a fluorimeter. Neutrophil migration to IgA was normalized to 100% (dotted line). Neutrophils or beads were pre‐incubated with (A) linear or (B) cyclic peptides mimicking FcαRI‐sequences (white bars) or IgA‐sequences (black bars). Data are representative of three independent experiments, performed in triplicates. Mean ± SD is shown. Statistical analysis: ANOVA *p< 0.05, **p < 0.01.
(§1) In vitro migration assays were performed as previously described 4. All experiments were performed in triplo. Migration towards IL‐8 (30 ng/mL) was measured after pre‐incubating neutrophils with peptides (1 μg/mL) or anti‐IL‐8 blocking antibody (10 μg/mL, Pharmingen).
Supporting Information Figure 2 […]
Percentage of migration of fluorescently labelled neutrophil to IgA-coated beads, either in the presence or absence of peptide mimetics. The number of migrated neutrophils was determined with a fluorimeter. Neutrophil migration to IgA was normalized to 100% (dotted line). Neutrophils or beads were pre-incubated with (A) oxidated or (B) small cyclic peptides mimicking FcαRI-sequences (white bars) or IgA-sequences (black bars). Data are representative of 3 independent experiments, performed in triplicates. Mean ± SD of one representative experiment is shown. Statistical analysis: ANOVA

[2] = tested on: neutrophils; experiment: Ex vivo human skin migration assay (IgA-coated beads injected in the dermis); type: cell-based; details: full thickness human skin grafts; peptide 1 μg/mL, pre-incubation 20 min, 4°C; incubated overnight (24 h) at 37°C; fluorescence microscopy; three independent experiments in duplicate; Fig. 4
Source text: To mimic blocking of neutrophil migration toward aberrant IgA‐antigen complexes in the skin, an ex vivo migration assay was established. […] No influx toward BSA‐coated beads was observed, whereas massive influx of neutrophils toward the injected IgA‐coated beads was observed (Fig 4A).
Figure 4 Peptide mimetics block neutrophil migration and penetrate the dermis in an ex vivo human skin model. Migration of green‐fluorescent neutrophils to BSA‐ (left panel) or IgA‐ (right panel) coated beads (indicated with circles) in the dermis of ex vivo skin explants (A). Migration of green‐fluorescent neutrophils to IgA‐coated beads (indicated with circles) after pre‐incubation with non‐blocking peptide FcαRI9‐ox (B), linear peptides (C) or cyclic CLIPS‐peptides (D). Images are representative of three independent experiments, performed in duplicate. Scale bar = 250 μm. Images are 10× magnified.
For ex vivo human skin migration assays, full thickness mammary skin grafts (epidermis and dermis) were placed in an ex vivo tissue incubation chamber with the dermis face up 6, 49. IgA‐coated beads were pre‐incubated with FcαRI‐peptides (1 μg/mL, 20 min, 4°C) and injected intracutaneously via the dermis. BSA‐coated beads were used for control. Next, PKH‐67 labeled neutrophils (4 × 10^6 cells/well) were added on the dermis. Alternatively, IgA‐coated beads were injected intracutaneously and PKH‐67 labeled neutrophils (4 × 10^6 cells/well) that were pre‐incubated with IgA‐peptides (1 μg/mL, 20 min, 4°C) were added onto the dermis. Cells were supplemented with IFN‐γ to prevent early apoptosis (300 units/mL; Boehringer Ingelheim, Ingelheim am Rhein, Germany). Skin was incubated overnight at 37°C, after which biopsies of the injected skin were taken and snap frozen. Cryosections of 6 μm were analysed with a Nikon eclipse e800 (Nikon instruments Europe BV, Amsterdam, The Netherlands).

[3] = tested on: neutrophils; experiment: IL-8 induced chemotaxis of neutrophils; type: cell-based, human; details: IL-8 30 ng/mL; neutrophils pre-incubated with peptides 1 μg/mL; fluorimeter; three times in triplo; Supporting Information Fig. 3
Description: as §1
Supporting Information Figure 3 […]
medium IL-8anti-IL-8IgA1-linFcĮRI1-linFcĮRI9-ox
Number of fluorescently labelled neutrophils which migrated to IL-8 in a chemotaxis chamber, either in the presence or absence of peptide mimetics. The number of migrated neutrophils was determined with a fluorimeter. Neutrophil migration to IL-8 is indicated with a dotted line.
Medium and blocking IL-8 antibody (anti-IL-8) were used as controls. Experiments were performed three times in triplo. Mean ± SD of one representative experiments in triplo is shown.
Statistical analysis: ANOVA

[4] = tested on: IgA binding to FcαRI (on neutrophils); experiment: Ligand binding assay: neutrophil binding to IgA-coated plates; type: cell-based; details: peptide 1 μg/mL, pre-incubation 20 min, 4°C, calcein labeled human neutrophils 2.5 × 10^5 cells/well, 37°C, fluorimeter, three independent experiments in triplicates, Fig. 1
Description: Figure 1 Peptide mimetics inhibit IgA binding to FcαRI. Percentage of ligand binding between IgA and FcαRI (on neutrophils), either in the presence or absence of peptide mimetics. Fluorescently labelled human neutrophils, isolated from blood, were added to IgA‐coated plates, and the number of neutrophils attaching to the plate was measured with a fluorimeter. IgA binding to FcαRI was normalized to 100% (indicated with dotted line). Neutrophils or plates were pre‐incubated with either linear peptides (A) or cyclic CLIPS‐peptides (B) mimicking FcαRI‐sequences (white bars) or IgA‐sequences (black bars). Data are representative of three independent experiments, performed in triplicates. Mean is shown, error bars refer to SD (n = 3). Statistical analysis: ANOVA*p< 0.05, **p < 0.01.
Neutrophils were isolated from heparinized peripheral human blood from healthy donors after informed consent was given, using standard Lymphoprep (Axis‐shield, Dundee, Scotland) density gradient centrifugation. […]
Plates (Nunc‐ImmunoMaxiSorp™, Roskilde, Denmark) were coated with IgA, or BSA (as control) (10 μg/mL, 3 h, 37°C), washed and pre‐incubated with FcαRI‐peptides (1 μg/mL, 20 min, 4°C). […] Attached cells were lysed and fluorescence of supernatant was measured with a fluorimeter (485 nm excitation/520 nm emission filters; Fluostar Galaxy, BMG Labtechnologies, Offenburg, Germany), as measure of binding. […]

Substance | block of IgA-induced neutrophil migration (in words) [1] | neutrophil migration to IgA-coated beads in ex vivo human skin [2] | other results
CEALPLAFTCKT (also: sidechain bridge or staple (positions not given here)) [IgA2‐CLIPS] | do not block | – | –
CHYRFRC (also: sidechain bridge or staple (positions not given here)) [FcαRI3‐CLIPS] | do not block | – | –
GRYQAQCRIGHYRFCYSD (disulfide 7-15 (inferred)) [FcαRI9‐ox] | do not block | did not inhibit | effect on IL-8 induced chemotaxis [3]: do not block
RYQAQCRIGHYRFC (disulfide 6-14 (inferred)) [FcαRI6‐ox] | do not block | – | –
SCEALPLAFTCKT (also: sidechain bridge or staple (positions not given here)) [IgA3‐CLIPS] | do not block | – | –
SSCVGHEALPLAFTCKT (also: sidechain bridge or staple (positions not given here)) [IgA7‐CLIPS] | – | fully abrogated | –
SSCVGHEALPLAFTCKT (disulfide 3-15 (inferred)) [IgA7‐ox] | do not block | – | –
SSMCGHEALPLAFCQKT (disulfide 4-14 (inferred)) [IgA6‐ox] | do not block | – | –
SSMVGHEALPLAFTQKT [IgA1‐lin] | – | completely blocked | block of neutrophil migration to IgA-coated beads ([1]; neutrophils or beads pre-incubated with peptides, three independent experiments in triplicates, Fig. 3): 60–80%; effect on IL-8 induced chemotaxis [3]: do not block; blocking of neutrophil binding to IgA-coated wells [4]: approximately 50%
YQACHYRFRC (also: sidechain bridge or staple (positions not given here)) [FcαRI5‐CLIPS] | do not block | – | –
